Experimental data taken from US10144738B2, “Pyrazolo[1,5-A]PYRAZIN-4-YL derivatives” (Pfizer Inc., priority 2016, dated 2018).

How the values were obtained:
Format in all cases: biochemical
Conditions in all cases: recombinant human kinase domain, Caliper mobility shift
[1] = biological target: TYK2 (Homo sapiens (Human), UniProt P29597); assay: JAK Caliper enzyme assay at 1 mM ATP (TYK2)
Description: (§1) Compounds of the invention were evaluated by in vitro methods to determine their respective ability to inhibit the JAK kinases (TYK2, JAK1, JAK2, JAK3).
(§2) The human JAK inhibitory activity was determined by using a microfluidic assay to monitor phosphorylation of a synthetic peptide by the recombinant human kinase domain of each of the four members of the JAK family, JAK1, JAK2, JAK3 and TYK2. […] Each assay condition was optimized for enzyme concentration and room temperature incubation time to obtain a conversion rate of 20% to 30% phosphorylated peptide product. Reactions were terminated by the addition of stop buffer containing EDTA. Utilizing the LabChip 3000 mobility shift technology (Caliper Life Science), each assay reaction was sampled to determine the level of phosphorylation. This technology is separation-based, allowing direct detection of fluorescently labeled substrates and products. Separations are controlled by a combination of vacuum pressure and electric field strength optimized for each peptide substrate.
(§3) JAK Caliper Enzyme Assay at 1 mM ATP
(§4) Compounds were added to a 384-well plate. Reaction mixtures contained 10 mM HEPES, pH 7.4, 10 mM MgCl2, 0.01% BSA, 0.0005% Tween 20, 1 mM ATP and 1 μM peptide substrate. […] The assays were initiated by the addition of 20 nM JAK1, 1 nM JAK2, 1 nM JAK or 1 nM TYK2 enzyme and were incubated at room temperature for three hours for JAK1, 60 minutes for JAK2, 75 minutes for JAK3 or 135 minutes for TYK2. Enzyme concentrations and incubation times were optimized for each new enzyme preps and were modified slightly over time to ensure 20% to 30% phosphorylation. The assays were stopped with 15 μL of 180 mM HEPES, pH 7.4, 20 mM EDTA, and 0.2% Coating Reagent 3. The assay plates were placed on a Caliper Life Science LC3000 instrument, and each well was sampled using appropriate separation conditions to measure the unphosphorylated and phosphorylated peptide.
(§5) The data was collected using the HTS Well Analyzer software from Caliper Life Sciences. The data output for data analysis is the percent product converted calculated on peak height (Equation 1). % product converted=100*((product)/(product+substrate)) Equation 1: […]
(§6) The percent effect at each compound concentration was calculated based on the positive and negative control well contained within each assay plate (Equation 2). […] The negative control wells contained DMSO alone (at the same concentration as the compound wells) that was used to set the baseline activity in the assay (i.e., uninhibited JAK1, JAK2, JAK3 or TYK2). % effect=100*((sample well−negative control)/(positive control-negative control)) Equation 2: The percent effect was plotted against the compound concentration compound.

[2] = biological target: JAK2 (Homo sapiens (Human), UniProt O60674); assay: JAK Caliper enzyme assay at 1 mM ATP (JAK2)
Chain of JAK2 (O60674 849-1124): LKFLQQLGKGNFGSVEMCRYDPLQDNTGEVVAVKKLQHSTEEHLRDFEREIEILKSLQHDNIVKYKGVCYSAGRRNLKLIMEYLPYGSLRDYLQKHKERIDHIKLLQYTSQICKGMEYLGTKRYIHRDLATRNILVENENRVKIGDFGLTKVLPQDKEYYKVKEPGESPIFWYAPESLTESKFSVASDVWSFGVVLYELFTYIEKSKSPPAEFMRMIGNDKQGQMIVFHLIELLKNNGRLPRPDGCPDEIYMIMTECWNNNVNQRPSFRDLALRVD
Description: as §1, §2, §3, §4, §5, §6

[3] = biological target: JAK1 (Homo sapiens (Human), UniProt P23458); assay: JAK Caliper enzyme assay at 1 mM ATP (JAK1)
Chain of JAK1 (P23458 875-1153): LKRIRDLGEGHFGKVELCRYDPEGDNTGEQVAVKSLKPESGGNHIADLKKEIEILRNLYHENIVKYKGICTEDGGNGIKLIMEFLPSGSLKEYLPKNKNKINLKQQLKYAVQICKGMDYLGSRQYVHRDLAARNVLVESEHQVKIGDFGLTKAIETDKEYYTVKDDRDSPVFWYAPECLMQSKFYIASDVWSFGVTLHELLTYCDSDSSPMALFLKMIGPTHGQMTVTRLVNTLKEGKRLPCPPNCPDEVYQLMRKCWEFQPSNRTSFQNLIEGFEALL
Description: Compounds of the invention were evaluated by in vitro methods to determine their respective ability to inhibit the JAK kinases (TYK2, JAK1, JAK2, JAK3). The human JAK inhibitory activity was determined by using a microfluidic assay to monitor phosphorylation of a synthetic peptide by the recombinant human kinase domain of each of the four members of the JAK family, JAK1, JAK2, JAK3 and TYK2. […] Reactions were terminated by the addition of stop buffer containing EDTA. Utilizing the LabChip 3000 mobility shift technology (Caliper Life Science), each assay reaction was sampled to determine the level of phosphorylation. This technology is separation-based, allowing direct detection of fluorescently labeled substrates and products. Separations are controlled by a combination of vacuum pressure and electric field strength optimized for each peptide substrate. […] Compounds were added to a 384-well plate. […] Enzyme concentrations and incubation times were optimized for each new enzyme preps and were modified slightly over time to ensure 20% to 30% phosphorylation. […] The assay plates were placed on a Caliper Life Science LC3000 instrument, and each well was sampled using appropriate separation conditions to measure the unphosphorylated and phosphorylated peptide. The data was collected using the HTS Well Analyzer software from Caliper Life Sciences. […] The percent effect at each compound concentration was calculated based on the positive and negative control well contained within each assay plate (Equation 2). […] The percent effect was plotted against the compound concentration compound. […] Where max is the maximum asymptote (complete inhibition), min is the minimum asymptote (no inhibition) and s is the slope factor.

[4] = biological target: JAK3 (Homo sapiens (Human), UniProt P52333); assay: JAK Caliper enzyme assay at 1 mM ATP (JAK3)
Chain of JAK3 (P52333 822-1111): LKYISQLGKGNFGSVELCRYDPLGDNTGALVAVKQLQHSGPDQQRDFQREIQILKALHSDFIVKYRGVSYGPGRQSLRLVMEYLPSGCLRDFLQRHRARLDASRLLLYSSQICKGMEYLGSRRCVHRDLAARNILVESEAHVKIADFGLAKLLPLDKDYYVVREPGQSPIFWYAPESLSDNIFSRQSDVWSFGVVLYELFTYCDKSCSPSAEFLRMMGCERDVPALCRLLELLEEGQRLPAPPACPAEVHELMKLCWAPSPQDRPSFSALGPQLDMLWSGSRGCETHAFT
Description: as §1, §2, §3, §4, §5, §6

Chain of TYK2 (P29597 897-1176): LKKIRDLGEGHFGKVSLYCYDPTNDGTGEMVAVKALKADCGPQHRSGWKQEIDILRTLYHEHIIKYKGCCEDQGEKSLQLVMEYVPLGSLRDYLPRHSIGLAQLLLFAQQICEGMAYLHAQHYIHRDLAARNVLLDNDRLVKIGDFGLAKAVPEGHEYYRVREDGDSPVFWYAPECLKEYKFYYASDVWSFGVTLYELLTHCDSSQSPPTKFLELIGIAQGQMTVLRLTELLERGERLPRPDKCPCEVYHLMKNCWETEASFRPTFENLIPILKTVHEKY

Compound | IC50 [1] | IC50 [2] | IC50 [3] | IC50 [4]
Cn1cc(-c2cn3nccc3c(-c3cnn([C@]4(CC#N)C[C@H](CC#N)C4)c3)n2)cn1 [Example 11, 2,2′-((1s,3s)-1-(4-(6-(1-Methyl-1H-pyrazol-4-yl)pyrazolo[1,5-a]pyrazin-4-yl)-1H-pyrazol-1-yl)cyclobutane-1,3-diyl)diacetonitrile] | 8 nM | 38 nM | 273 nM | > 6170 nM
CO[C@H]1C[C@](CC#N)(n2cc(-c3nc(-c4cnn(C)c4)cn4nccc34)cn2)C1 [Example 15, 2-((1r,3s)-3-Methoxy-1-(4-(6-(1-methyl-1H-pyrazol-4-yl)pyrazolo[1,5-a]pyrazin-4-yl)-1H-pyrazol-1-yl)cyclobutyl)acetonitrile] | – | 228 nM | 1500 nM | > 9120 nM
Cn1cc(-c2cn3nccc3c(-c3cnn([C@]4(CC#N)C[C@@](C)(C#N)C4)c3)n2)cn1 [Example 35, (1r,3r)-3-(Cyanomethyl)-1-methyl-3-(4-(6-(1-methyl-1H-pyrazol-4-yl)pyrazolo[1,5-a]pyrazin-4-yl)-1H-pyrazol-1-yl)cyclobutane-1-carbonitrile] | 136 nM | 268 nM | 1920 nM | > 10000 nM
CO[C@H]1C[C@](CC#N)(n2cc(-c3nc(-c4cn(C)nc4CO)cn4nccc34)cn2)C1 [Example 31, 2-((1r,3s)-1-(4-(6-(3-(Hydroxymethyl)-1-methyl-1H-pyrazol-4-yl)pyrazolo[1,5-a]pyrazin-4-yl)-1H-pyrazol-1-yl)-3-methoxycyclobutyl)acetonitrile] | 38 nM | 324 nM | > 9860 nM | > 10000 nM
Cn1cc(-c2cn3nccc3c(-c3cnn(C4(CC#N)CCC4)c3)n2)cn1 [Example 4, 2-(1-(4-(6-(1-Methyl-1H-pyrazol-4-yl)pyrazolo[1,5-a]pyrazin-4-yl)-1H-pyrazol-1-yl)cyclobutyl)acetonitrile] | 55 nM | 141 nM | 1340 nM | > 10000 nM
Cn1cc(-c2cn3nccc3c(-c3cnn([C@]4(CC#N)C[C@@H](C#N)C4)c3)n2)c(=O)[nH]1 [Example 37, (1r,3r)-3-(Cyanomethyl)-3-(4-(6-(1-methyl-3-oxo-2,3-dihydro-1H-pyrazol-4-yl)pyrazolo[1,5-a]pyrazin-4-yl)-1H-pyrazol-1-yl)cyclobutane-1-carbonitrile] | 32 nM | 166 nM | 3490 nM | > 10000 nM
Cc1nn([C@]2(CC#N)C[C@@H](C#N)C2)cc1-c1nc(-c2cnn(C)c2)cn2nccc12 [Example 21, (1r,3r)-3-(Cyanomethyl)-3-(3-methyl-4-(6-(1-methyl-1H-pyrazol-4-yl)pyrazolo[1,5-a]pyrazin-4-yl)-1H-pyrazol-1-yl)cyclobutane-1-carbonitrile] | 34 nM | 109 nM | 1290 nM | > 10000 nM
Cn1cc(-c2cn3nccc3c(-c3cnn([C@]4(CC#N)C[C@@H](O)C4)c3)n2)cn1 [Example 14, 2-((1r,3s)-3-Hydroxy-1-(4-(6-(1-methyl-1H-pyrazol-4-yl)pyrazolo[1,5-a]pyrazin-4-yl)-1H-pyrazol-1-yl)cyclobutyl)acetonitrile] | 81 nM | – | 1060 nM | > 10000 nM
CO[C@H]1C[C@@](CC#N)(n2cc(-c3nc(-c4cnn(C)c4)cn4nccc34)cn2)C1 [Example 16, 2-((1s,3r)-3-Methoxy-1-(4-(6-(1-methyl-1H-pyrazol-4-yl)pyrazolo[1,5-a]pyrazin-4-yl)-1H-pyrazol-1-yl)cyclobutyl)acetonitrile] | – | 99 nM | 664 nM | 10000 nM
CNC(=O)c1cc(-c2cn3nccc3c(-c3cnn([C@]4(CC#N)C[C@@H](OC)C4)c3)n2)[nH]n1 [Example 6, 5-(4-(1-((1r,3s)-1-(Cyanomethyl)-3-methoxycyclobutyl)-1H-pyrazol-4-yl)pyrazolo[1,5-a]pyrazin-6-yl)-N-methyl-1H-pyrazole-3-carboxamide] | – | 500 nM | – | > 10000 nM
Cn1cc(-c2cn3nccc3c(-c3cnn([C@]4(CC#N)C[C@H](O)C4)c3)n2)cn1 [Example 13, 2-((1s,3r)-3-Hydroxy-1-(4-(6-(1-methyl-1H-pyrazol-4-yl)pyrazolo[1,5-a]pyrazin-4-yl)-1H-pyrazol-1-yl)cyclobutyl)acetonitrile] | 149 nM | – | 3230 nM | > 10000 nM
Cn1cc(-c2cn3nccc3c(-c3cnn(C4(CC#N)CN(S(C)(=O)=O)C4)c3)n2)cn1 [Example 8, 2-(3-(4-(6-(1-Methyl-1H-pyrazol-4-yl)pyrazolo[1,5-a]pyrazin-4-yl)-1H-pyrazol-1-yl)-1-(methylsulfonyl)azetidin-3-yl)acetonitrile] | 11 nM | – | 265 nM | > 9280 nM

Further lines, results first:

IC50 [1] | IC50 [2] | IC50 [3] | IC50 [4] | Compound
580 nM | 1600 nM | 5710 nM | > 10000 nM | CCC(=O)N1CC(CC#N)(n2cc(-c3nc(-c4cnn(C)c4)cn4nccc34)cn2)C1 [Example 10, 2-(3-(4-(6-(1-Methyl-1H-pyrazol-4-yl)pyrazolo[1,5-a]pyrazin-4-yl)-1H-pyrazol-1-yl)-1-propionylazetidin-3-yl)acetonitrile]
62 nM | 299 nM | 1060 nM | > 10000 nM | N#CCC1(n2cc(-c3nc(-c4cc(CO)[nH]n4)cn4nccc34)cn2)CN(CC2CC2)C1 [Example 2, 2-(1-(Cyclopropylmethyl)-3-(4-(6-(5-(hydroxymethyl)-1H-pyrazol-3-yl)pyrazolo[1,5-a]pyrazin-4-yl)-1H-pyrazol-1-yl)azetidin-3-yl)acetonitrile]
25 nM | 432 nM | 3550 nM | > 10000 nM | CO[C@H]1C[C@](CC#N)(n2cc(-c3nc(-c4cc(N)n(C)n4)cn4nccc34)cn2)C1 [Example 24, 2-((1r,3s)-1-(4-(6-(5-Amino-1-methyl-1H-pyrazol-3-yl)pyrazolo[1,5-a]pyrazin-4-yl)-1H-pyrazol-1-yl)-3-methoxycyclobutyl)acetonitrile]
27 nM | 249 nM | 1360 nM | > 10000 nM | CO[C@H]1C[C@](CC#N)(n2cc(-c3nc(-c4cc(CO)[nH]n4)cn4nccc34)cn2)C1 [Example 28, 2-((1r,3s)-1-(4-(6-(5-(Hydroxymethyl)-1H-pyrazol-3-yl)pyrazolo[1,5-a]pyrazin-4-yl)-1H-pyrazol-1-yl)-3-methoxycyclobutyl)acetonitrile]
64 nM | – | 2290 nM | – | CCN1CC(CC#N)(n2cc(-c3nc(-c4cc(CO)[nH]n4)cn4nccc34)cn2)C1 [Example 3, 2-(1-Ethyl-3-(4-(6-(5-(hydroxymethyl)-1H-pyrazol-3-yl)pyrazolo[1,5-a]pyrazin-4-yl)-1H-pyrazol-1-yl)azetidin-3-yl)acetonitrile]
35 nM | – | 1920 nM | > 10000 nM | CO[C@H]1C[C@](CC#N)(n2cc(-c3nc(-c4cc(NC(C)=O)[nH]n4)cn4nccc34)cn2)C1 [Example 5, N-(3-(4-(1-((1r,3s)-1-(Cyanomethyl)-3-methoxycyclobutyl)-1H-pyrazol-4-yl)pyrazolo[1,5-a]pyrazin-6-yl)-1H-pyrazol-5-yl)acetamide]
